According to PubChem BioAssay (NCI):
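Results reflect a 48-hour exposure of cells in 96-well plates to compound at five concentrations. TGI: concentration producing complete growth inhibition.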

Columns and labels:
Assay in all cases: DTP human tumour cell line panel, 48 h
[1] = tested on: 786-0 renal
[2] = tested on: A498 renal
[3] = tested on: A549 NSCLC
[4] = tested on: ACHN renal
[5] = tested on: BT-549 breast
[6] = tested on: CAKI-1 renal
[7] = tested on: COLO 205 colon
[8] = tested on: DU-145 prostate
[9] = tested on: EKVX NSCLC
[10] = tested on: HCT-116 colon
[11] = tested on: HCT-15 colon
[12] = tested on: HL-60(TB) leukemia
[13] = tested on: HOP-62 NSCLC
[14] = tested on: HOP-92 NSCLC
[15] = tested on: HS 578T breast
[16] = tested on: HT29 colon
[17] = tested on: IGROV1 ovarian
[18] = tested on: K-562 leukemia
[19] = tested on: KM12 colon
[20] = tested on: LOX IMVI melanoma
[21] = tested on: M14 melanoma
[22] = tested on: MALME-3M melanoma
[23] = tested on: MCF7 breast
[24] = tested on: MDA-MB-231 breast
[25] = tested on: MDA-MB-435
[26] = tested on: MDA-N
[27] = tested on: MOLT-4 leukemia
[28] = tested on: NCI-H226 lung
[29] = tested on: NCI-H23 lung
[30] = tested on: NCI-H460 lung
[31] = tested on: NCI-H522 lung
[32] = tested on: NCI/ADR-RES ovarian
[33] = tested on: OVCAR-3 ovarian
[34] = tested on: OVCAR-4 ovarian
[35] = tested on: OVCAR-5 ovarian
[36] = tested on: OVCAR-8 ovarian
[37] = tested on: PC-3 prostate
[38] = tested on: RPMI-8226 leukemia
[39] = tested on: RXF 393 renal
[40] = tested on: SF-268 CNS
[41] = tested on: SF-295 CNS
[42] = tested on: SF-539 CNS
[43] = tested on: SK-MEL-2 melanoma
[44] = tested on: SK-MEL-28 melanoma
[45] = tested on: SK-MEL-5 melanoma
[46] = tested on: SK-OV-3 ovarian
[47] = tested on: SN12C renal
[48] = tested on: SNB-19 CNS
[49] = tested on: SNB-75 CNS
[50] = tested on: SR leukemia
[51] = tested on: SW-620 colon
[52] = tested on: T-47D breast
[53] = tested on: TK-10 renal
[54] = tested on: U251 CNS
[55] = tested on: UACC-62 melanoma
[56] = tested on: UO-31 renal
[57] = tested on: CCRF-CEM leukemia
[58] = tested on: UACC-257 melanoma

O=[N+]([O-])c1ccc(Cl)c(CNc2ncnc3c2ncn3C2CCCCO2)c1 (stereo unspecified)
TGI [1]: > 100 µM | TGI [2]: 43.9 µM | TGI [3]: > 100 µM | TGI [4]: > 100 µM | TGI [5]: > 100 µM | TGI [6]: > 100 µM | TGI [7]: > 100 µM | TGI [8]: > 100 µM | TGI [9]: > 100 µM | TGI [10]: > 100 µM | TGI [11]: > 100 µM | TGI [12]: 73.2 µM | TGI [13]: > 100 µM | TGI [14]: > 100 µM | TGI [15]: > 100 µM | TGI [16]: > 100 µM | TGI [17]: > 100 µM | TGI [18]: > 100 µM | TGI [19]: > 100 µM | TGI [20]: > 100 µM | TGI [21]: > 100 µM | TGI [22]: > 100 µM | TGI [23]: 62 µM | TGI [24]: > 100 µM | TGI [25]: 30.3 µM | TGI [26]: 27 µM | TGI [27]: 88.2 µM | TGI [28]: 86.6 µM | TGI [29]: > 100 µM | TGI [30]: 52.2 µM | TGI [31]: > 100 µM | TGI [32]: > 100 µM | TGI [33]: > 100 µM | TGI [34]: > 100 µM | TGI [35]: > 100 µM | TGI [36]: > 100 µM | TGI [37]: > 100 µM | TGI [38]: > 100 µM | TGI [39]: 42.6 µM | TGI [40]: > 100 µM | TGI [41]: > 100 µM | TGI [42]: 66.1 µM | TGI [43]: > 100 µM | TGI [44]: > 100 µM | TGI [45]: 52.3 µM | TGI [46]: > 100 µM | TGI [47]: > 100 µM | TGI [48]: > 100 µM | TGI [49]: > 100 µM | TGI [50]: 64.4 µM | TGI [51]: > 100 µM | TGI [52]: > 100 µM | TGI [53]: > 100 µM | TGI [54]: > 100 µM | TGI [55]: > 100 µM | TGI [56]: > 100 µM

COc1nc(C#CC2CCCCC2)nc(OC)n1
TGI [1]: 7.77 µM | TGI [2]: 37.2 µM | TGI [3]: 16.4 µM | TGI [4]: 17.5 µM | TGI [5]: 14.6 µM | TGI [6]: 12.5 µM | TGI [57]: 11.7 µM | TGI [7]: 53.5 µM | TGI [8]: 14.6 µM | TGI [9]: 32.6 µM | TGI [10]: 10.2 µM | TGI [11]: 5.97 µM | TGI [12]: 26 µM | TGI [13]: 18.4 µM | TGI [15]: 17.7 µM | TGI [16]: > 100 µM | TGI [17]: 14 µM | TGI [18]: 28.4 µM | TGI [19]: 17.9 µM | TGI [20]: 8.69 µM | TGI [21]: 10.6 µM | TGI [22]: 6.49 µM | TGI [23]: 14.9 µM | TGI [24]: 13.2 µM | TGI [25]: 10.1 µM | TGI [26]: 25.2 µM | TGI [27]: > 100 µM | TGI [29]: 8.6 µM | TGI [30]: 26.6 µM | TGI [31]: 6.33 µM | TGI [32]: 4.59 µM | TGI [33]: 8.97 µM | TGI [34]: 27.3 µM | TGI [35]: 12.3 µM | TGI [36]: 3.44 µM | TGI [37]: 16.3 µM | TGI [38]: 6.53 µM | TGI [39]: 19.1 µM | TGI [40]: 20.4 µM | TGI [41]: 18 µM | TGI [42]: 6.31 µM | TGI [43]: 13.1 µM | TGI [44]: 32.8 µM | TGI [45]: 15.3 µM | TGI [46]: > 100 µM | TGI [47]: 11.1 µM | TGI [48]: 43.6 µM | TGI [49]: 27.6 µM | TGI [50]: > 100 µM | TGI [51]: 15.6 µM | TGI [52]: > 100 µM | TGI [54]: 16.7 µM | TGI [58]: 23.5 µM | TGI [55]: 4.38 µM | TGI [56]: 12.2 µM
